This note sets out measurements from US20240279240A1, “HETEROCYCLIC DERIVATIVES AS JANUS KINASE INHIBITORS” (CHIESI FARMACEUTICI S.P.A., priority 2021, published 2024).

For one assay, the target named is JAK 1 (Homo sapiens, UniProt P23458). The assay is described as follows: Biochemical potency on JAK1, TR-FRET LANCE Ultra kinase assay (examples 1-99). To be noted: ATP at Km (20 μM), read-out: JAK1 inhibitory activity (pIC50 class) (converted). The procedure: (§1) The objective of this study was to assess the capability of compounds to inhibit all 4 JAK isoforms activity in a cell-free environment. Assay for JAK 1, JAK 2, JAK 3 and TYK2 were performed by Time-resolved fluorescence resonance energy transfer (TR-FRET) technology. It consists in the interaction of two labelled binding partners detected by the energy transfer from an excited donor to an acceptor dye and measurement of light emission by the acceptor dye. LANCE Ultra kinase assay was used. In presence of JAK 1, JAK 2, JAK 3 and TYK2 kinases and ATP (corresponding to Km), the ULight peptide substrate (LANCE Ulight-JAK-1 (Tyr1023) Peptide, Perkin Elmer, TRF0121) is phosphorylated. It is then captured by Eu-anti-phospho-substrate antibody (LANCE Eu-W1024 Anti-phosphotyrosine (PT66), Perkin Elmer, AD0069), which bring the Eu-chelate donor and ULight acceptor dyes into close proximity. Upon excitation at 320 nm, the Eu-chelate transfers its energy to the ULight dye, resulting in a fluorescent light emission at 665 nm.
Chain of JAK 1 (P23458 whole entry, canonical isoform): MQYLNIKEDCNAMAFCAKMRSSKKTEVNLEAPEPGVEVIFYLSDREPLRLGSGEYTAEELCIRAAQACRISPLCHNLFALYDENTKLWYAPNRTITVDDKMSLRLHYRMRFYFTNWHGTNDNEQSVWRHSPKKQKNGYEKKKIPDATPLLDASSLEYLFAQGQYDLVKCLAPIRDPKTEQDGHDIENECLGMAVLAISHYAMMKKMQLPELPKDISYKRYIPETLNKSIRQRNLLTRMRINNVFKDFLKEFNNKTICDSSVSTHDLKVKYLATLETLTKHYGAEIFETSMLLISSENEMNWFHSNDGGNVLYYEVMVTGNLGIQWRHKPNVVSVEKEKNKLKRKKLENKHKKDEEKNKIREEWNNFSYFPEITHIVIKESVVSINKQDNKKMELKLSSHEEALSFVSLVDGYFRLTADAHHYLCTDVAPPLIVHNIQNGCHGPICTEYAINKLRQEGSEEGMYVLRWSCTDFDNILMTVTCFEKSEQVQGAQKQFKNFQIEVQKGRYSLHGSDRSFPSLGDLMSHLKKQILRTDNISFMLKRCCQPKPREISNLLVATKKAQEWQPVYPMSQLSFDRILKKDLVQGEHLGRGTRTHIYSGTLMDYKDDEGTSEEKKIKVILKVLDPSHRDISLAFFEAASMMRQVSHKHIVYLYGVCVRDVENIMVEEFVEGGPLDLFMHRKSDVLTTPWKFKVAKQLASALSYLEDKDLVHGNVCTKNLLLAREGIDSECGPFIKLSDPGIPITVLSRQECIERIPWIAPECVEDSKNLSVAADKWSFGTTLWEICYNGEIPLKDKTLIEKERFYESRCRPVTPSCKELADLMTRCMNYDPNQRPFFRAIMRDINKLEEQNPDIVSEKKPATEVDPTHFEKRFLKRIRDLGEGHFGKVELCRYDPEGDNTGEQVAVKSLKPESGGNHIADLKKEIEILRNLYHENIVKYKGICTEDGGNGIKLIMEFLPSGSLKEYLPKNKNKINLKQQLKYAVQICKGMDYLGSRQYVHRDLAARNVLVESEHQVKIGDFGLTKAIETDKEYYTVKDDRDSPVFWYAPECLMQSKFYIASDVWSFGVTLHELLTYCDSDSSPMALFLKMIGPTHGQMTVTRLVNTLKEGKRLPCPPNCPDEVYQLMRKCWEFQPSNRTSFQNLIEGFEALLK
(§2) Serial dilutions of compounds in pure DMSO are prepared from 10 mM DMSO stock solutions. Compounds were tested in 384-well plate for 11 consecutive 5-fold dilutions starting from 20 μM highest concentration (20 μM-[…]). 200 nL of compound were transferred from mother plate to test plate by using Mosquito (TTP labtech). Assay was performed in 384-well Perkin Elmer test plate in 20 μL assay volume (kinase reaction) and 40 μL total volume (stopping reagent and antibody detection reagents). In 10 μL of substrate solution (peptide+ATP) 30/50/20/10 nM of peptide and 20/0.7/0.2/12 μM of ATP were added for JAK 1, JAK 2, JAK 3 and TYK2 respectively. 10 μL of enzyme solution was added to kinase reaction at these concentrations: 0.15/0.083/0.025/0.144 ng/μL of JAK 1, JAK 2, JAK 3 and TYK2 respectively. After shaking and 1.5 h of incubation at r.t., 20 μL of Stop (10 μL EDTA) and Detection mixture (10 μL Europium-anti-phospho antibody, final: 0.5 nM) were added. Reading was performed after 1 h of incubation on a EnVision 2104 reader (Perkin Elmer).
(§3) Calculation of IC50 data, curves and QC analysis was performed by using Excel tool and GraphPadPrism software, v9. Briefly, individual concentration-effect curves are generated by plotting the logarithm of the tested concentration of tested compounds (X) vs. corresponding percent inhibition values (Y) using least squares (ordinary) fit. Best fit IC50 values are calculated using Log(inhibitor) vs. normalized response—Variable slope equation, where Y=100/(1+10^((Log IC50−X)*HillSlope)). QC criteria parameters (Z′, S:B, R2, HillSlope) were checked for every IC50 curve. Calculation of IC50 data, curves and QC analysis were made using Excel tools and GraphPadPrism software. QC criteria parameters: Z′≥0.5, Hill Slope range 0.5 to 5, S:B>2.
(In general: TR-FRET usually uses a lanthanide donor and a delayed reading to cut background.)

The next assay concerns the target JAK 2 (Homo sapiens, UniProt O60674). The assay can be described thus: Biochemical potency on JAK2, TR-FRET LANCE Ultra kinase assay (examples 1-99). Particulars: ATP at Km (0.7 μM), read-out: JAK2 inhibitory activity (pIC50 class) (converted). Here is the method: as §1, §2, §3
A further assay has as its target T1, JAK 3 (Homo sapiens, UniProt P52333).
T1 sequence (P52333 1-1124): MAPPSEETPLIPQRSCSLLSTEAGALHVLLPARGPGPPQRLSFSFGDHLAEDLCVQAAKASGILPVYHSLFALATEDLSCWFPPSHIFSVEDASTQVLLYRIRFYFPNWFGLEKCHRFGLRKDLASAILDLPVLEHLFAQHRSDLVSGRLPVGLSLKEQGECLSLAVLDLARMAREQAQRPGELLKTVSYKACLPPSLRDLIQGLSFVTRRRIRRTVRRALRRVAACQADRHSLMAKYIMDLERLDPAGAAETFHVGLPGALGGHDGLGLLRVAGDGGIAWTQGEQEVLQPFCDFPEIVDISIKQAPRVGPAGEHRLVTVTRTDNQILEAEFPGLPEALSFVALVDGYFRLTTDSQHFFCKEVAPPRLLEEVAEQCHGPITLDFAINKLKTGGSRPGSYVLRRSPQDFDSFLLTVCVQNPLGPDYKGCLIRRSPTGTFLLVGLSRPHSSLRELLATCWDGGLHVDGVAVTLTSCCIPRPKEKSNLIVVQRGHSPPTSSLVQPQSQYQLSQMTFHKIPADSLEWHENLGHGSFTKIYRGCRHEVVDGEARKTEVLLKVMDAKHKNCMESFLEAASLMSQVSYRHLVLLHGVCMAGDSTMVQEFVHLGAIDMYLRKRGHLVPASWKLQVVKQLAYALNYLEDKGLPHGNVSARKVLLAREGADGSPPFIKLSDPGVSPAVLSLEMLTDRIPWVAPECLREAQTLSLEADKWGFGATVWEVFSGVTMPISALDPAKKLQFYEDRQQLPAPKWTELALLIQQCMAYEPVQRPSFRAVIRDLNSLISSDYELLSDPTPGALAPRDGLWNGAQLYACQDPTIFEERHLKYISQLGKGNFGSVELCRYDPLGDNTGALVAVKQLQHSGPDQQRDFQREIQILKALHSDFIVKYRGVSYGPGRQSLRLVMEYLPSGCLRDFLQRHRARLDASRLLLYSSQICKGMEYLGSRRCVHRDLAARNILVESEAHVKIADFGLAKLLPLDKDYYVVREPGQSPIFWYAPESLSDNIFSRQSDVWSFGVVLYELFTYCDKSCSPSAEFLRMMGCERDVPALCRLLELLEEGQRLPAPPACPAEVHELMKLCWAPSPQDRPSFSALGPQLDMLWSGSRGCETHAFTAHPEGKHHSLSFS
The assay is described as follows: Biochemical potency on JAK3, TR-FRET LANCE Ultra kinase assay (examples 1-99). Particulars: ATP at Km (0.2 μM), read-out: JAK3 inhibitory activity (pIC50 class) (converted). Here is the method:
as §1, §2, §3

In another assay the target is TYK2 (Homo sapiens, UniProt P29597). The assay can be described thus: Biochemical potency on Tyk2, TR-FRET LANCE Ultra kinase assay (examples 1-99). To be noted: ATP at Km (12 μM), read-out: Tyk2 inhibitory activity (pIC50 class) (converted). Here is the method:
as §1, §2, §3

Chain of TYK2 (P29597 whole entry): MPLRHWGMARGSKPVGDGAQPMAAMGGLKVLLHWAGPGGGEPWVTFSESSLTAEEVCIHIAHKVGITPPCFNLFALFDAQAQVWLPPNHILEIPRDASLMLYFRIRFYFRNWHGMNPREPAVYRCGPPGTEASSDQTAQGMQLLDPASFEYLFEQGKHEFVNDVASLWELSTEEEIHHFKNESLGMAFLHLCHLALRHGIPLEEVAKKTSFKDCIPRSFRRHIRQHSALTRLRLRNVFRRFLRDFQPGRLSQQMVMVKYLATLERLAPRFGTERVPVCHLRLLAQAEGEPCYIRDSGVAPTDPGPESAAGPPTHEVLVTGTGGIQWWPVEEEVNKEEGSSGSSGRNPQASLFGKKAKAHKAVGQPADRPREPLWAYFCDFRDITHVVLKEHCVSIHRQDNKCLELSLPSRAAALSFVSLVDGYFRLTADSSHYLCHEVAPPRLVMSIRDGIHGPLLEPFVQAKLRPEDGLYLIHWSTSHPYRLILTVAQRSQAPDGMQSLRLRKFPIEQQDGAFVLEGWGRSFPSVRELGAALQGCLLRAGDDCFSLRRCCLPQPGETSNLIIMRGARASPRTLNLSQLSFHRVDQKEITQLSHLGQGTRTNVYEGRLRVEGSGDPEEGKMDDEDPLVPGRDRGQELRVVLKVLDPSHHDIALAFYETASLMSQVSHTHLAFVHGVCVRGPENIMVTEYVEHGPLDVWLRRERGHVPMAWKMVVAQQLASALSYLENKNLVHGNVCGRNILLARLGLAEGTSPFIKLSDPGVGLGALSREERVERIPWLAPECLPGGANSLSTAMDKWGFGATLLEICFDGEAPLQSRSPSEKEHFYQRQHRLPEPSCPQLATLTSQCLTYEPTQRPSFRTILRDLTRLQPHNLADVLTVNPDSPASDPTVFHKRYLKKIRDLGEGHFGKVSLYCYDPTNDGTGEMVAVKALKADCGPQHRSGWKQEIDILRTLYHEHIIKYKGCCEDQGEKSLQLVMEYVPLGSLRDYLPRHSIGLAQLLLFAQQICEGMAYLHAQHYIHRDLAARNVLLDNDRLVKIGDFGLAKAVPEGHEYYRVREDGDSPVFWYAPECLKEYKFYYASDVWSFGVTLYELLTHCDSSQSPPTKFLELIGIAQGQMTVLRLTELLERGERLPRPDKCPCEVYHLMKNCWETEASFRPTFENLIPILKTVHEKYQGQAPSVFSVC
Chain of JAK 2 (O60674 whole entry): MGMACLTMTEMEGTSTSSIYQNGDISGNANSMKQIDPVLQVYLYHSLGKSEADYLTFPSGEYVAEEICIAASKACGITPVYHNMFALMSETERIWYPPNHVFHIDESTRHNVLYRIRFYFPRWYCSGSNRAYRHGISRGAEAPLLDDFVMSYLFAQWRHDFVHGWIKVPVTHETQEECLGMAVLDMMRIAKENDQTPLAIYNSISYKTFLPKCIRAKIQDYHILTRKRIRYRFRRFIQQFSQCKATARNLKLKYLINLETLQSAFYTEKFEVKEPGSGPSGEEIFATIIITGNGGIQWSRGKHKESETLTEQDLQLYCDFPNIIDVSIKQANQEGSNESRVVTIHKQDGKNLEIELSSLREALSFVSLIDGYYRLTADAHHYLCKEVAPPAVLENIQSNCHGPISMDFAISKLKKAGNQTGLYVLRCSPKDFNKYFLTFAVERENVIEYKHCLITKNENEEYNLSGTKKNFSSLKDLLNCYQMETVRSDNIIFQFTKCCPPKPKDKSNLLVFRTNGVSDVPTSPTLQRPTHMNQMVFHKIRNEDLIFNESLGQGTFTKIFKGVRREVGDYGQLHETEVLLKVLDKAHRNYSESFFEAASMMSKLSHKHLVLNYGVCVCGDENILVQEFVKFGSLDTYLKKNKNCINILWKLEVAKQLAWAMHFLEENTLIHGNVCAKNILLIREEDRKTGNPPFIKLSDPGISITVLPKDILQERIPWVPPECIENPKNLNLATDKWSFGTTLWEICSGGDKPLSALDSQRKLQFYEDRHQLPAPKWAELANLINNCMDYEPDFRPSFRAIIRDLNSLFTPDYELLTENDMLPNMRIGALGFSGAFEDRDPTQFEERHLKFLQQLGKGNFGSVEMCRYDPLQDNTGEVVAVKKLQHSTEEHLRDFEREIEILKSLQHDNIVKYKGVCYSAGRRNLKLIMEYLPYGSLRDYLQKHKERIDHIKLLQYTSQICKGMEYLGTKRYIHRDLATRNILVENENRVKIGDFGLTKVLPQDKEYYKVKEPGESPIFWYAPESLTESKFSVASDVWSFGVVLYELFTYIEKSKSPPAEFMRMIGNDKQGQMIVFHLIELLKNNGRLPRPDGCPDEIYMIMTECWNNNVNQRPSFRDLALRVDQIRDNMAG

Regarding `Cc1nn(-c2cc(S(=O)(=O)CCN3CCCCC3)ccc2OC(F)F)c2cc(-c3cnn4cccnc34)ncc12` [Example 23, 1-(2-(difluoromethoxy)-5-((2-(piperidin-1-yl)ethyl)sulfonyl)phenyl)-3-methyl-6-(pyrazolo[1,5-a]pyrimidin-3-yl)-1H-pyrazolo[4,3-c]pyridine], the IC50 at JAK 1 was 5.01 to 50.1 nM; at JAK 2 it was 5.01 to 50.1 nM; on JAK 3, 5.01 to 50.1 nM; at TYK2 it was more than 50.1 nM.

As for `CC(=O)N1CCC(S(=O)(=O)c2ccc(OC(F)F)c(-n3nc(C)c4cnc(-c5cnn6cccnc56)cc43)c2)C1` (stereo not shown) [Example 24, 1-(3-((4-(difluoromethoxy)-3-(3-methyl-6-(pyrazolo[1,5-a]pyrimidin-3-yl)-1H-pyrazolo[4,3-c]pyridin-1-yl)phenyl)sulfonyl)pyrrolidin-1-yl)ethan-1-one], the IC50 on JAK 1 is 5.01 to 50.1 nM; at JAK 2 it was not above 5.01 nM; at JAK 3, not above 5.01 nM; on TYK2, more than 50.1 nM.

Consider `COc1cccc(S(=O)(=O)c2ccc(OC(F)F)c(-n3nc(C)c4cnc(-c5cnn6cccnc56)cc43)c2)c1` [Example 25, 1-(2-(difluoromethoxy)-5-((3-methoxyphenyl)sulfonyl)phenyl)-3-methyl-6-(pyrazolo[1,5-a]pyrimidin-3-yl)-1H-pyrazolo[4,3-c]pyridine], for which the IC50 on JAK 1 is 5.01 to 50.1 nM; at JAK 2 it was not above 5.01 nM; at JAK 3, not above 5.01 nM; at TYK2, 5.01 to 50.1 nM.

In the case of `Cc1nn(-c2cc(S(C)(=O)=O)ccc2OC(F)F)c2cc(-c3cnn4cccnc34)ncc12` [Example 26, 1-(2-(difluoromethoxy)-5-(methylsulfonyl)phenyl)-3-methyl-6-(pyrazolo[1,5-a]pyrimidin-3-yl)-1H-pyrazolo[4,3-c]pyridine], the IC50 on JAK 1 was not above 5.01 nM; at JAK 2, not above 5.01 nM; at JAK 3, not above 5.01 nM; on TYK2, 5.01 to 50.1 nM.

In the case of `COc1cc(O)ccc1-n1nc(C)c2cnc(-c3cnn4cccnc34)cc21` [Example 27, 3-methoxy-4-(3-methyl-6-(pyrazolo[1,5-a]pyrimidin-3-yl)-1H-pyrazolo[4,3-c]pyridin-1-yl)phenol], the IC50 on JAK 1 is 5.01 to 50.1 nM; at JAK 2 it was not above 5.01 nM; on JAK 3 it was 5.01 to 50.1 nM; at TYK2, more than 50.1 nM.

Consider `N#CCc1nn(-c2cc(Cl)ccc2OC(F)F)c2cc(-c3cnn4cccnc34)ncc12` [Example 28, 2-(1-(5-chloro-2-(difluoromethoxy)phenyl)-6-(pyrazolo[1,5-a]pyrimidin-3-yl)-1H-pyrazolo[4,3-c]pyridin-3-yl)acetonitrile], for which the IC50 on JAK 1 was not above 5.01 nM; on JAK 2, not above 5.01 nM; on JAK 3, not above 5.01 nM; at TYK2, 5.01 to 50.1 nM.

As to `OCc1nn(-c2cc(Cl)ccc2OC(F)F)c2cc(-c3cnn4cccnc34)ncc12` [Example 29, (1-(5-chloro-2-(difluoromethoxy)phenyl)-6-(pyrazolo[1,5-a]pyrimidin-3-yl)-1H-pyrazolo[4,3-c]pyridin-3-yl)methanol], the IC50 at JAK 1 is 5.01 to 50.1 nM; on JAK 2, not above 5.01 nM; on JAK 3 it was not above 5.01 nM; on TYK2 it was 5.01 to 50.1 nM.

For the compound `CN(C)Cc1nn(-c2cc(Cl)ccc2OC(F)F)c2cc(-c3cnn4cccnc34)ncc12` [Example 30, 1-(1-(5-chloro-2-(difluoromethoxy)phenyl)-6-(pyrazolo[1,5-a]pyrimidin-3-yl)-1H-pyrazolo[4,3-c]pyridin-3-yl)-N,N-dimethylmethanamine], the IC50 was 5.01 to 50.1 nM on JAK 1, 5.01 to 50.1 nM on JAK 2, 5.01 to 50.1 nM on JAK 3 and more than 50.1 nM at TYK2.

As to `CNCc1nn(-c2cc(Cl)ccc2OC(F)F)c2cc(-c3cnn4cccnc34)ncc12` [Example 31, 1-(1-(5-chloro-2-(difluoromethoxy)phenyl)-6-(pyrazolo[1,5-a]pyrimidin-3-yl)-1H-pyrazolo[4,3-c]pyridin-3-yl)-N-methylmethanamine], the IC50 at JAK 1 is 5.01 to 50.1 nM; at JAK 2 it was 5.01 to 50.1 nM; on JAK 3 it was 5.01 to 50.1 nM; on TYK2 it was more than 50.1 nM.

Turning to `NCc1nn(-c2cc(Cl)ccc2OC(F)F)c2cc(-c3cnn4cccnc34)ncc12` [Example 32, (1-(5-chloro-2-(difluoromethoxy)phenyl)-6-(pyrazolo[1,5-a]pyrimidin-3-yl)-1H-pyrazolo[4,3-c]pyridin-3-yl)methanamine], the IC50 is 5.01 to 50.1 nM on JAK 1, not above 5.01 nM on JAK 2, 5.01 to 50.1 nM at JAK 3 and 5.01 to 50.1 nM at TYK2.

`CNC(=O)c1nn(-c2cc(Cl)ccc2OC(F)F)c2cc(-c3cnn4cccnc34)ncc12` [Example 33, 1-(5-chloro-2-(difluoromethoxy)phenyl)-N-methyl-6-(pyrazolo[1,5-a]pyrimidin-3-yl)-1H-pyrazolo[4,3-c]pyridine-3-carboxamide]: the IC50 at JAK 1 is not above 5.01 nM; at JAK 2, not above 5.01 nM; at JAK 3, not above 5.01 nM; on TYK2 it was 5.01 to 50.1 nM.

As for `COc1ccc(Cl)cc1-n1nc(C(=O)N[C@H]2C[C@@H](O)C2)c2cnc(-c3cnn4cccnc34)cc21` [Example 34, 1-(5-chloro-2-methoxyphenyl)-N-((1s,3s)-3-hydroxycyclobutyl)-6-(pyrazolo[1,5-a]pyrimidin-3-yl)-1H-pyrazolo[4,3-c]pyridine-3-carboxamide], the IC50 on JAK 1 is 5.01 to 50.1 nM; on JAK 2, 5.01 to 50.1 nM; at JAK 3 it was 5.01 to 50.1 nM; at TYK2, more than 50.1 nM.

For the compound `O=C(c1nn(-c2cc(Cl)ccc2OC(F)F)c2cc(-c3cnn4cccnc34)ncc12)N1CCS(=O)(=O)CC1` [Example 35, (1-(5-chloro-2-(difluoromethoxy)phenyl)-6-(pyrazolo[1,5-a]pyrimidin-3-yl)-1H-pyrazolo[4,3-c]pyridin-3-yl)(1,1-dioxidothiomorpholino)methanone], the IC50 at JAK 1, at JAK 2, on JAK 3 and on TYK2 was 5.01 to 50.1 nM each time.
